Results reported in paper PMC11320734 (ACS Pharmacology & Translational Science, 2024).
Read-outs that look alike come from different tables or passages of the source.

Tests used:
TRPA1 = TRPA1 (Homo sapiens, UniProt O75762); assay: Endocannabinoid target profiling: TRPA1; conditions: Table S1; read-out: TRPA1 (Ki, IC50)
[1] = Aqueous stability assay (ASTA); format: physicochemical
Description: The stability of the compound was assessed using the aqueous stability assay (ASTA), as previously described.[37] In short, aqueous solutions of RNB-61 were prepared at 5 different pH values (range 1–10), added to incubation plates and shaken for 10 min at 37 °C. Solutions were transferred to a filter plate (Millipore MSGVN2250, pore size 0.22 μm) and filtered into V- bottom plates (ABGene, AB-0800) prior to heat-sealing. The procedure was repeated, increasing the 37 °C incubation time by 2 h. Samples were analyzed by HPLC at 0 and 2 h. A compound was classified as unstable if <90% of the initial concentration was detected after 2 h.

[2] = Parallel artificial membrane permeability (PAMPA) assay; format: in vitro ADME; conditions: for Papp: PAMPA, read-out: PAMPA Peff
Description: (§1) The general permeability of the compound was assessed using the parallel artificial membrane permeability (PAMPA) assay and the permeability-glycoprotein (P-gp) assay was used to specifically test for brain penetration. PAMPA data were generated as previously reported by our group.[44] The P-gp assay, which evaluates the brain penetration of test compounds, was performed as described elsewhere.[45] Briefly, transfected porcine kidney epithelial (LLC-PK1) cells expressing human or mouse P-gp were cultured on 96-well semipermeable filter membrane plates (Millipore, Darmstadt, Germany). Cells formed a polarized monolayer with tight junctions that acted as a barrier between apical and basolateral compartments. P-gp was expressed in the apical-facing membrane of the monolayer (tightness confirmed using Lucifer yellow). To determine the unidirectional permeability (Papp) of RNB-61, samples were added separately to the apical (for A > B Papp) and basolateral (for B > A Papp) sides of the cell monolayer (i.e., donor compartments), and RNB-61 movement into the respective receiver compartments was measured by LC-MS/MS over a 3 h incubation at 37 °C. The effect of P-gp was measured by expressing the efflux ratio of the unidirectional A > B and B > A Papp values. The mean permeability (A > B and B > A Papp) was determined in the absence of P-gp via the addition of the selective P-gp inhibitor, tariquidar.

human P-gp = molecular target: T1, human P-gp (Homo sapiens, UniProt P08183); assay: P-gp assay in transfected LLC-PK1 cells; format: in vitro ADME; conditions: read-out: P-gp transporter ER human
T1 construct: expressed in transfected cells; host or cells: LLC-PK1 (porcine kidney epithelial) cells
Description: as §1, with “To determine the unidirectional permeability (Papp) of RNB-61, samples were added separately to the apical (for A > B Papp) and basolateral (for B > A Papp) sides of the cell monolayer (i.e., donor compartments), and RNB-61 movement into the respective receiver compartments was measured by LC-MS/MS over a 3 h incubation at 37 °C.” left out

mouse P-gp = molecular target: T2, mouse P-gp (Mus musculus, UniProt P21447); assay: P-gp assay in transfected LLC-PK1 cells; format: in vitro ADME; conditions: read-out: P-gp transporter ER mouse
T2 construct: expressed in transfected cells; host or cells: LLC-PK1 (porcine kidney epithelial) cells
Description: as §1, with “To determine the unidirectional permeability (Papp) of RNB-61, samples were added separately to the apical (for A > B Papp) and basolateral (for B > A Papp) sides of the cell monolayer (i.e., donor compartments), and RNB-61 movement into the respective receiver compartments was measured by LC-MS/MS over a 3 h incubation at 37 °C.” left out

Microsomal clearance = format: in vitro ADME; conditions: mouse, mouse microsomes; Table 3
Description: (§2) The hepatocyte clearance assay was performed as previously described.[39] For mice hepatocytes, the suspension cultures were either freshly prepared by liver perfusion or prepared from cryopreserved hepatocyte batches (pooled C57BL6 mouse hepatocytes were purchased from BioreclamationIVT (NY, USA)). For human hepatocytes, commercially available, pooled (5–20 donors), cryopreserved samples from nontransplantable liver tissues were used. For the suspension cultures, Nunc U96 PP-0.5 mL (Nunc Natural, 267245) plates were used, which were incubated in a Thermo Forma incubator from Fischer Scientific (Wohlen, Switzerland) equipped with shakers from Variomag Teleshake (Sterico, Wangen, Switzerland) for maintaining cell dispersion. The cell culture medium was William’s media supplemented with glutamine, antibiotics (100 IU/mL Penicillin-Streptomycin, Gibco), insulin, dexamethasone, and 10% fetal calf serum (FCS). Incubations of a test compound at 1 μM test concentration in suspension cultures of 1 × 10^6 cells mL^–1 (∼1 μg μL^–1 protein concentration) were performed in 96-well plates and shaken at 900 rpm for up to 2 h in a 5% CO2 atmosphere at 37 °C. After 3, 6, 10, 20, 40, 60, and 120 min, a 100 μL cell suspension in each well was quenched with 200 μL methanol containing an internal standard. Samples were then cooled and centrifuged before analysis by LC-MS/MS. […]

[3] = Hepatocyte clearance assay; format: in vitro ADME
Description: as §2

T1 sequence (P08183 whole entry): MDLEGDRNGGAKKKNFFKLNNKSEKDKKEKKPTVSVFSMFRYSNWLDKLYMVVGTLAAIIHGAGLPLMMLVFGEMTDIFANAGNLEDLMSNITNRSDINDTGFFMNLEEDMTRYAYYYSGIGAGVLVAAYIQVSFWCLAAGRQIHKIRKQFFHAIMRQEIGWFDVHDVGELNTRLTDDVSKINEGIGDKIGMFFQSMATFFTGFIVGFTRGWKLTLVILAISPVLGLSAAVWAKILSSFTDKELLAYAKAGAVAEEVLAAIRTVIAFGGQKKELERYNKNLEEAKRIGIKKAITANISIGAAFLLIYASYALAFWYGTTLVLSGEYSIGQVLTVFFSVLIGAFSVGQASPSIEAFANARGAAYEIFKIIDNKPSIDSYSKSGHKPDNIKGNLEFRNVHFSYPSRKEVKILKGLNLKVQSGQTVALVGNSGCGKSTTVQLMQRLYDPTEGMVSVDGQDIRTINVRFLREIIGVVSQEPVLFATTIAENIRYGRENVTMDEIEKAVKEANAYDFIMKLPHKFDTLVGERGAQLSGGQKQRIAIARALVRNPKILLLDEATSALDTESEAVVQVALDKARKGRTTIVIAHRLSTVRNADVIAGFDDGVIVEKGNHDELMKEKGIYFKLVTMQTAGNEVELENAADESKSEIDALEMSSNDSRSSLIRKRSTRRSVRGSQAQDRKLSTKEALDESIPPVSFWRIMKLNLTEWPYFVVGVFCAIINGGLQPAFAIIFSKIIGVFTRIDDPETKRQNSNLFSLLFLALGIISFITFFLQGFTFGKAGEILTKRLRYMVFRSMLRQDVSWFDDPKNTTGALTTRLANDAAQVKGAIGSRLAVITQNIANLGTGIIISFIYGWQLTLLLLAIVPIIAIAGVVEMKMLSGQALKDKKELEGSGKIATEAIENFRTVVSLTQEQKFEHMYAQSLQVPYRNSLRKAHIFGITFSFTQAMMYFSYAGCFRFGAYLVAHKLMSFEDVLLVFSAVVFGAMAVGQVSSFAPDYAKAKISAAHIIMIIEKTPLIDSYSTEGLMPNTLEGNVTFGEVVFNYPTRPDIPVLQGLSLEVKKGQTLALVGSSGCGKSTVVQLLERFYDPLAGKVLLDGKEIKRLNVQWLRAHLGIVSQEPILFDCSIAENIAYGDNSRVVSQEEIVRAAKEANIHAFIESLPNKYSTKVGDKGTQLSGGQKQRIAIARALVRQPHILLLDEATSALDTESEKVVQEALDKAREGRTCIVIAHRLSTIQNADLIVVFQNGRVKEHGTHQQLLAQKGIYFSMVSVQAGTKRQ
Sequence of TRPA1 (O75762 whole entry, species assumed): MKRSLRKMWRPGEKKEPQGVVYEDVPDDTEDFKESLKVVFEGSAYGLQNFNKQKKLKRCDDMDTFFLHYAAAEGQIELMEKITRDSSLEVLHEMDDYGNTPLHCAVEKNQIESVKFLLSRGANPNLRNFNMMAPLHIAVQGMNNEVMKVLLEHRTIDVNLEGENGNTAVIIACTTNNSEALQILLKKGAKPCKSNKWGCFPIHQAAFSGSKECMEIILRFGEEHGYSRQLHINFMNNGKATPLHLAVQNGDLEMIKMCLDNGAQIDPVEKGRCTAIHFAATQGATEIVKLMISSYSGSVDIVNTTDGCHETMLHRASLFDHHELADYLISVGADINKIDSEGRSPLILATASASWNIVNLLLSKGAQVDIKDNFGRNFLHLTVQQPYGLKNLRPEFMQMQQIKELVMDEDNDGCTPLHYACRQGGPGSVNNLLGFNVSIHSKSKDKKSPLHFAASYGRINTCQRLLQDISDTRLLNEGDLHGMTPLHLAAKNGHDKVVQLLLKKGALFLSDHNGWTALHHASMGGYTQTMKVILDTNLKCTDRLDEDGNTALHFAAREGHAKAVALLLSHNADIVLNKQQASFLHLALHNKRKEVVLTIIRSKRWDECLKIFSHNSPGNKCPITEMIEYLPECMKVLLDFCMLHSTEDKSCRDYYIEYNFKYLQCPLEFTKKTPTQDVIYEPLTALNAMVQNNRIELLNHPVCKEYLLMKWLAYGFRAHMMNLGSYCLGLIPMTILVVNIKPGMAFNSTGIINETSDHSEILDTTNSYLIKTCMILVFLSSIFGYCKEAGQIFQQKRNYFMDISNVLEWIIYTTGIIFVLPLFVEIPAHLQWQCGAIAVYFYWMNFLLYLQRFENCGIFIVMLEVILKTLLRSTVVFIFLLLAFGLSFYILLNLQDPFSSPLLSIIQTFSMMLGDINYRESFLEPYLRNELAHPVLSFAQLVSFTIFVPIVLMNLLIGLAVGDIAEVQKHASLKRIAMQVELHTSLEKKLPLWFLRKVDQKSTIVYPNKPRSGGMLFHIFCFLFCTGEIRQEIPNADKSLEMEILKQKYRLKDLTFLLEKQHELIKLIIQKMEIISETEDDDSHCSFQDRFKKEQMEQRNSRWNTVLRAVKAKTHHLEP
T2 sequence (P21447 whole entry): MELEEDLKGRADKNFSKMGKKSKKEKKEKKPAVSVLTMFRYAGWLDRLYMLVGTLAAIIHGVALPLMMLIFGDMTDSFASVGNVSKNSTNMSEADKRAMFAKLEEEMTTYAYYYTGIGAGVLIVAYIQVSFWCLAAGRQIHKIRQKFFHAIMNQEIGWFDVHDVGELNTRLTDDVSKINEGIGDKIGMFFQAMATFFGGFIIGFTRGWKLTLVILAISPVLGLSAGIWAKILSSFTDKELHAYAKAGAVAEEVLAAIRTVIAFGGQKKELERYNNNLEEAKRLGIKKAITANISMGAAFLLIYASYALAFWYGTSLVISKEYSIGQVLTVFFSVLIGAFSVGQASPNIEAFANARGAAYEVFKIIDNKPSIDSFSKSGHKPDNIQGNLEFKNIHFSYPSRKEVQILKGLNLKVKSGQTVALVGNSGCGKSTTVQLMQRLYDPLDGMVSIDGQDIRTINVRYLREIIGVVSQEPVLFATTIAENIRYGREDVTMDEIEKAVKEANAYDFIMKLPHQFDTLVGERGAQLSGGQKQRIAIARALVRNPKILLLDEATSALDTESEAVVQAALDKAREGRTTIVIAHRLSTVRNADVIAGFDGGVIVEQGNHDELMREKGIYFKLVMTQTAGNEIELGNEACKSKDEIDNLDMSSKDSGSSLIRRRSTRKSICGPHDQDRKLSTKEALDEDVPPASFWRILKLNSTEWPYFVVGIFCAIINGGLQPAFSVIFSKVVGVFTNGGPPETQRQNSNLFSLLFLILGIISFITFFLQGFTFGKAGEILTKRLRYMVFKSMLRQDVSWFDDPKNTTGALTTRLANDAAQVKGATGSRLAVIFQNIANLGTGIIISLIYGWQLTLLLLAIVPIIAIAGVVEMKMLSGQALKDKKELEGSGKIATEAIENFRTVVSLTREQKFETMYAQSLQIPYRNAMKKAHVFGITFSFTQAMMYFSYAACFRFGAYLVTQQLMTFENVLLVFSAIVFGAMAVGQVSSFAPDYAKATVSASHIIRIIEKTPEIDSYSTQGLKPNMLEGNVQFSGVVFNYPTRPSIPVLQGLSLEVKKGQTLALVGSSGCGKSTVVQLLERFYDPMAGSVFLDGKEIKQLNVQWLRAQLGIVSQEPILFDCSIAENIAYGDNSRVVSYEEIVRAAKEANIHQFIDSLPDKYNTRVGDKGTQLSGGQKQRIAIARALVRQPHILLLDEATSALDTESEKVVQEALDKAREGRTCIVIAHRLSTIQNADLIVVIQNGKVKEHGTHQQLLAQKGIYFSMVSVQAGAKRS

Structure (SMILES): Cn1c(C(C)(C)C)cc(=NC(=O)c2cc(C(F)(F)F)ccc2OCC(C)(C)O)n1CC1CCC1 [RNB-61]
- IC50 (TRPA1): > 50 µM
- stability in aqueous solution at pH 1 ([1]; 2 h, 37 °C): 104.4 % of initial [200 nM]
- stability in aqueous solution at pH 4 ([1]; 2 h, 37 °C): 102.7 % of initial [200 nM]
- stability in aqueous solution at pH 6.5 ([1]; 2 h, 37 °C): 102.7 % of initial [200 nM]
- stability in aqueous solution at pH 8 ([1]; 2 h, 37 °C): 100.5 % of initial [200 nM]
- stability in aqueous solution at pH 10 ([1]; 2 h, 37 °C): 101.6 % of initial [200 nM]
- stability in aqueous solution ([1]; 2 h at 37 °C at pH 1, 4, 6.5, 8 and 10): stable
- PAMPA %Acc [2]: 6%
- PAMPA %Don [2]: 22%
- PAMPA %Mem [2]: 72%
- PAMPA Peff [2]: 2.14 × 10^–6 cm s^–1
- Papp ([2]; Table 1): 2.14 ×10⁻⁶ cm/s
- Papp [2]: 0.9 ×10⁻⁶ cm/s
- efflux ratio at 3 h (human P-gp): 40.6
- efflux ratio at 3 h (mouse P-gp): 26.8
- microsomal CLint (Microsomal clearance): ≤ 10 µL/min/mg
- hepatocyte CLint at 1 μM ([3]; C57BL6, mouse): 48.5 µL/min/1e6 cells
- hepatocyte CLint at 1 μM ([3]; human, pooled cryopreserved human hepatocytes in suspension culture): 85 µL/min/1e6 cells
